# Data reported in patent publication US6913935B1, “Multiple assay method” (Amersham Biosciences UK Limited, priority 1998, dated 2005).
# Target: streptavidin (Streptomyces avidinii, UniProt P22629)
# Assay: Competition of Cy-5 labelled biotin binding to streptavidin coated beads, mixed wells analysed by flow cytometry
# Details: well 2, bead type B (purple fluor), buffer containing biotin added before Cy-5 labelled biotin; compared with well 1 (buffer only)
# Method: Streptavidin coated bead type A (yellow fluor) and bead type B (purple fluor) were pipetted into two separate wells of a microtitre plate, such that well 1 contained bead A and well 2 contained bead B. Buffer was added to well 1 and buffer containing biotin was added to well 2. Following mixing arid incubation a solution of Cy-5 labelled biotin in buffer was added to both wells. Following further incubation the contents of well 1 and well 2 were combined and the mixture analysed by flow cytometry.
# Chain of streptavidin (P22629 25-183, species assumed): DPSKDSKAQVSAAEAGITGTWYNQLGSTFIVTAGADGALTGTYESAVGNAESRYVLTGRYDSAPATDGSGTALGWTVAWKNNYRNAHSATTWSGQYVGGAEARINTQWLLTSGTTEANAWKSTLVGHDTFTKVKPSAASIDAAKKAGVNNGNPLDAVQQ
smiles,measurement,value
O=C(O)CCCC[C@@H]1SC[C@@H]2NC(=O)N[C@@H]21 [biotin],Cy-5 fluorescence associated with bead type (Cy-5-biotin binding to streptavidin on the bead surface),low Cy-5-biotin binding
